Assay results reported in patent publication US20030180399A1, “Therapeutic/edible compositions comprising herbal ingredients and methods for treating hyperglycemia” (COUNCIL OF SCIENTIFIC & INDUSTRIAL RESEARCH, priority 2002, published 2003).

Tests used:
[1] = tested on: oral glucose tolerance in rats; test: Glucose Tolerance Test (GTT) in rats; type: in vivo, Male albino rats of wistar strains; details: rats loaded with glucose 5 g/kg 2 hours after dosing; P<0.05; glibenclamide 3 mg/Kg
Excerpt: Brief description of the accompanying drawings: Figure-1. Describes the effect of herbal formulation and glibenclamide on oral glucose tolerance tests in rats. From the above STZ induced diabetic model the composition 1 has chosen for GTT study. Male albino rats of wistar strains (150-200 g) were used. They were divided into three groups each containing 6 rats. They were randomly assigned A) control group B) standard group (glibenclamide) C) test group. Group A was given saline, group B was given glibenclamide (3 mg/Kg) and group C was given test compositions. After 2 hours all rats were loaded with glucose with a dose of 5 g/kg. Blood samples were taken from tail vein of conscious rats for every 30 minutes up to 3 hours. Plasma glucose estimations were done by glucose oxidase method by using Auto Blood Analyzer as described in FIG. 1. The statistical analysis was performed using Prism program (Graphpad software). Annova with post Newman—Keul test with P values was used to compare the treatment efficacy between the test groups.

[2] = tested on: STZ induced diabetic model; test: Plasma glucose level in streptozocin (STZ) induced diabetic rats, 15 days treatment; type: in vivo, Male albino rats of wistar strains; details: n=6, glibenclamide 3 mg/Kg
Description: Male albino rats of wistar strains (150-200 g) were used throughout the studies. Rats were divided into eleven groups of each containing 6 rats. These animals were randomly assigned to the following groups which include (A) control group, (B) standard group (glibenclamide, 3 mg/Kg) and (C) test groups (F1-F9). Diabetes was induced by injecting streptozocin (STZ) in a dose of 65 mg/kg intra venous in 0.1M citrate buffer. Rats were kept fasted overnight but were given water ad libitum. After 48 hours of STZ injection, blood samples were taken from tail vein of conscious rats. The blood was centrifuged at 5000 rpm for 10 minutes in an eppendorf tubes containing EDTA (1 mg/ml of blood). Plasma glucose estimations were done by glucose oxidase method by using Auto blood analyzer (Techinicon RA-100, Bayer Diagnostics, Ireland). Animals with blood glucose level more than 250% of the fasting level were considered to be diabetic and were used for the experiment. Group A was given normal saline, group B was given glibenclamide and various groups of C were given herbal compositions for 15 days at least once in day. Blood was collected from tail veins of all the rats after 7 days and 15 days of treatment and glucose levels were estimated as described previously (Table 2). The statistical analysis was performed using Prism program (Graphpad software). […]

COc1ccc(Cl)cc1C(=O)NCCc1ccc(S(=O)(=O)NC(=O)NC2CCCCC2)cc1 [Glibenclamide]
glucose tolerance compared to control group [1]: increased | % reduction in glucose levels ([2]; Day 7th of treatment): 27 ± 2.6% | % reduction in glucose levels ([2]; Day 15th of treatment): 38 ± 2.9%
